These are literature values, as cited in patent EP0547334A1, “Combination of calcium antagonists with cholinesterase inhibitors for the treatment of senile demention” (priority 1991, dated 1993).

Molecules are shown by their SMILES.

For the data set, the system named is Ratten. The settings on record: Metrifonat 1 mg/kg alone, oral, rats; literature statement (Schmidt, de Jonge 1991).

With `COP(=O)(OC)C(O)C(Cl)(Cl)Cl` (stereo not shown) [Metrifonat], the Wirkung result was “keine Wirkung”.
